# Assay results as given in patent US8546357B2, “Boron-containing small molecules for controlling ectoparasites” (priority 2011, dated 2013).
# Assays:
# [1] = tested on: American dog tick (Dermacentor variabilis) nymphs; experiment: Efficacy against nymphal-stage American dog ticks on rats, oral; format: in vivo; conditions: oral point dose of between 5-25 mg/kg bodyweight, 48 hours after treatment
# Description: Evaluations were conducted using a modified version of the assay as described in Gutierrez et al., J. Med. Entomol. 43(3): 526-532 (2006). This assay may be modified by simply using different tick species (the reference describes Amblyomma americanum ticks), such as Dermacentor variabilis or Rhipicephalus sanguineus ticks, as well as different life-stages (larval, nymphal or adult). Further, the reference describes using topical application methods, but oral, transdermal and subcutaneous injection routes of administration may be used.
# In these studies, adult male or female rats, approximately 300 grams in size, were randomly assigned to a treatment group or a control (untreated negative control or fipronil positive control) group. Each group consisted of three (3) to five (5) rats. […] On Day 2, approximately forty-eight (48) hours after treatment, live and dead ticks were removed from animals and counted.
# Live tick counts were transformed using the natural logarithm transformation plus one (Ln count+1); addition of one to each count served to adjust for counts that were zero. […] GM percent efficacy of treatments was calculated using the following formula:
# Enantiomers were evaluated for activity against American dog tick (Dermacentor variabilis) nymphs on rats. […] On Day 2, approximately forty-eight (48) hours after treatment, live and dead ticks were removed from animals and counted. […]
# [2] = tested on: adult American dog tick (Dermacentor variabilis); experiment: Therapeutic (knockdown) and residual efficacy against adult American dog tick infestations on dogs, oral; format: in vivo; conditions: for Residual efficacy: Example 7, oral capsule 35 mg/kg
# Description: The therapeutic (knockdown) and residual efficacy of 5, administered orally at a point dose of 25 mg/kg bodyweight, was evaluated against adult American dog tick (D. variabilis) infestations on dogs. Six beagle dogs were allocated to one of two treatment groups, an untreated control group (n=4 dogs) or 5 group (n=2 dogs). On Day 0, two dogs were treated with 5 via oral gavage (25 mg/ml 5, dissolved in a solution of 55% polyethylene glycol-300, 35% propylene glycol and 10% water) at a point dose of approximately 25 mg/kg. Twenty-four (24) hours before treatment (Day −1), all dogs were infested with approximately 50 unfed, adult-stage American dog ticks (D. variabilis; approximately 50% male and 50% female). On Day 1, approximately 24 hours after treatment, thumb counts were conducted to determine the number and life-status classification of ticks present on all dogs (normal, moribund or dead; attached or detached). Ticks were not removed during thumb counts. On Day 2, approximately 48 hours after treatment, all ticks were classified and removed from dogs. Dogs were re-infested with approximately 50 unfed, adult D. variabilis ticks on Days 5 and 12, with tick classification, counts and removal on Days 7 and 14 (approximately 48 hours after each infestation).
# The therapeutic (knockdown) and residual efficacy of 7 and 8, each administered orally at a point dose of 25 mg/kg bodyweight, was evaluated against adult tick (Dermacentor variabilis and Rhipicephalus sanguineus) and adult cat flea (Ctenocephalides felis) infestations on dogs. Twelve (12) male and female beagle dogs were randomly allocated to one of three treatment groups, four (4) dogs per group: Untreated control; 7, 25 mg/kg; and 8, 25 mg/kg. On Day −1, all dogs were infested with approximately 50 unfed, adult D. variabilis ticks. On Day 0, dogs were orally administered gelatin capsules containing either 7 or 8 (50% technical active, 47% microcrystalline cellulose and 3% croscarmellose sodium, w/w). Ticks were counted and classified, but not removed, on all dogs on Day 1, approximately 24 hours after treatment. On Day 2, approximately 48 hours after treatment, ticks were counted, classified and removed. Dogs were re-infested with the same number of D. variabilis ticks on Days 5, 12, 19 and 28 and tick counts were conducted on Days 7, 14, 21 and 30.
# The therapeutic (knockdown) and residual efficacy of 7, administered orally at a point dose of 35 mg/kg bodyweight, was evaluated against adult tick (Dermacentor variabilis and Rhipicephalus sanguineus) and adult cat flea (Ctenocephalides felis) infestations on dogs. Twelve (12) male and female beagle dogs were allocated to either an untreated, negative control group or 7 group (n=6 dogs per group). Dogs were infested with approximately 50 unfed, adult D. variabilis ticks on Days −1, 5, 12, 19, 28, 35 and 42. On Day 0, dogs were orally administered gelatin capsules containing Compound 8194 (50% technical active, 47% microcrystalline cellulose and 3% croscarmellose sodium, w/w) at a point dose of 35 mg/kg. D. variabilis tick counts and classification were conducted on Day 1 (thumb count, approximately 24 hours after treatment) and Days 2, 7, 14, 21, 30, 37 and 44 (approximately 48 hours after treatment). Following removal of D. variabilis ticks on Day 30, all dogs were co-infested with approximately 50 unfed, adult brown dog ticks (R. sanguineus) and approximately 100 unfed, adult cat fleas (C. felis). Brown dog tick and cat flea counts were conducted on Day 32 (approximately 48 hours after infestation). GM percent efficacy of treatments against both tick species and fleas was calculated using the following formula: […]
# The therapeutic (knockdown) and residual efficacy of S-enantiomer, 9, administered orally at a point dose of 25 mg/kg bodyweight, was evaluated against adult tick (Dermacentor variabilis and Rhipicephalus sanguineus) and adult cat flea (Ctenocephalides felis) infestations on dogs. […]
# [3] = Table 2, oral capsule 25 mg/kg, Day 2
# [4] = Table 2, oral capsule 25 mg/kg, Day 7
# [5] = Table 2, oral capsule 25 mg/kg, Day 14
# [6] = Table 2, oral capsule 25 mg/kg, Day 21
# [7] = Table 2, oral capsule 25 mg/kg, Day 30
# [8] = Table 3, oral capsule 35 mg/kg, Day 2
# [9] = Table 3, oral capsule 35 mg/kg, Day 7
# [10] = Table 3, oral capsule 35 mg/kg, Day 14
# [11] = Table 3, oral capsule 35 mg/kg, Day 21
# [12] = Table 3, oral capsule 35 mg/kg, Day 30
# [13] = Table 3, oral capsule 35 mg/kg, Day 37
# [14] = Table 3, oral capsule 35 mg/kg, Day 44
smiles,measurement,setting,value
"Cc1cc(C2=NOC(c3cc(Cl)c(Cl)c(Cl)c3)(C(F)(F)F)C2)ccc1C(=O)NCc1ccc2c(c1)B(O)OC2(C)C (stereo not drawn) [Compound 7, N-((1-Hydroxy-3,3-dimethyl-1,3-dihydrobenzo[c][1,2]oxaborol-6-yl)methyl)-2-methyl-4-(5-(3,4,5-trichlorophenyl)-5-(trifluoromethyl)-4,5-dihydroisoxazol-3-yl)benzamide]",Maximum in vivo efficacy (% reduction in live tick counts),[1],"7 (100%), 8 (100%),"
same,continued residual efficacy,"[2]; Example 6, oral capsule 25 mg/kg, through at least 14 days",100%
same,Residual efficacy,[2]; through Day 14,> 99%
same,Residual efficacy,[2]; through Day 37,> 95%
same,Geometric mean group live parasite counts,"[2]; Table 2, oral capsule 25 mg/kg, Day 1",0.0
same,% efficacy,[2]; [3],(100) %
same,Geometric mean group live parasite counts,[2]; [3],0.0
same,% efficacy,[2]; [4],(100) %
same,Geometric mean group live parasite counts,[2]; [4],0.0
same,% efficacy,[2]; [5],(100) %
same,Geometric mean group live parasite counts,[2]; [5],0.0
same,% efficacy,[2]; [6],(99.3) %
same,Geometric mean group live parasite counts,[2]; [6],0.3
same,% efficacy,[2]; [7],(73.2) %
same,Geometric mean group live parasite counts,[2]; [7],9.5
same,Geometric mean group live parasite counts,"[2]; Table 3, oral capsule 35 mg/kg, Day 1",0.1
same,% efficacy,[2]; [8],(100) %
same,Geometric mean group live parasite counts,[2]; [8],0.0
same,% efficacy,[2]; [9],(99.1) %
same,Geometric mean group live parasite counts,[2]; [9],0.3
same,% efficacy,[2]; [10],(100) %
same,Geometric mean group live parasite counts,[2]; [10],0.0
same,% efficacy,[2]; [11],(98.4) %
same,Geometric mean group live parasite counts,[2]; [11],0.2
same,% efficacy,[2]; [12],(98.7) %
same,Geometric mean group live parasite counts,[2]; [12],0.4
same,% efficacy,[2]; [13],(95.7) %
same,Geometric mean group live parasite counts,[2]; [13],1.2
same,% efficacy,[2]; [14],(67.2) %
same,Geometric mean group live parasite counts,[2]; [14],9.3
